In patent US9708628B2, “Cationic lipid having improved intracellular kinetics” (NOF CORPORATION, priority 2011, dated 2017):

Experiments:
Type in all cases: in vivo, ICR mice
[1] = tested on: IL-12p70; test: Cytokine production by MEND administration, IL-12p70 (ELISA); conditions: pCpGfree-Luc(0), 40 μg DNA
Protocol: (§1) MENDs used in [Experimental Example 12] were each administered to 5-week-old male ICR mice from the tail vein in an amount corresponding to 40 μg DNA. 1, 3, 6, 24 hr later, the blood was collected from the heart, and TNF-α, IFN-γ, IL-12p70 were measured using Quantikine ELISA kit (R&D Systems).

[2] = tested on: liver, lung and spleen; test: Gene expression activity in liver, lung and spleen after tail vein administration of MEND; conditions: 40 μg DNA
Protocol: A solution of pDNA encoding luciferase gene and protamine (maker) solution were diluted with 10 mM HEPES buffer to 0.3 mg/mL and 0.24 mg/mL, respectively. […] A solution (750 μL) of the electrostatic complex composed of gene and protamine was mixed with the lipid solution (750 μL), and the mixture was quickly stirred, diluted with 10 mM HEPES solution (pH 5.3) to 15 mL, and subjected to ultrafiltration using Amicon® Ultra-15 100K device at 3,000 rpm, 15 min, 25° C. The solution after ultrafiltration was diluted with 100 mM HEPES buffer (pH 7.4), and subjected to the ultrafiltration again. The solution was diluted with 10 mM HEPES buffer to 750 μL. […] The mice were euthanized by a cervical spine […] method 6, 24, 48, 72 hr later, and the liver, lung and spleen were isolated and frozen with liquid nitrogen. They were thawed in a Lysis buffer to prepare homogenates. They were centrifuged at 13,000 rpm, 10 min, 4° C., and the supernatant was collected and used as a measurement sample. The sample solution (20 μL) was mixed with a luciferase substrate (50 μL), and the luciferase activity was measured using Luminescenser-PSN (AB2200 ATTO). In addition, the concentration of the protein in the sample was quantified using a BCA protein assay kit, and the gene expression activity was measured as RLU/mg protein.

[3] = tested on: liver; test: Time course of gene expression activity in the liver (IVIS imaging, total luminescence in abdomen); conditions: for luminescence / gene expression time course: 40 μg DNA, tail vein
Source text: As a DNA to be mounted on MEND composed of B-2 in this case, […]-Luc(0) described in WO 2011/132713 was used as pDNA completely excluding CpG sequence known to induce immune response and, as a general pDNA having a CpG sequence, a plasmid DNA (pcDNA3.1-Luc(+); CpG sequence total 425) containing a CpG sequence in the back bone of the plasmid DNA and having a CpG sequence even between the initiation codon and the stop codon of the luciferase sequence (marker gene) was used. In gene transfer using cationic MEND and in vivo […]-Luc(0) alone was used. 6, 24, 72 hr later, luciferin (in vivo grade, Promega) corresponding to 3 mg was intraperitoneally administered to the mice, and imaging was performed using IVIS LuminaII (Caliper Life Sciences). As for MEND composed of B-2, imaging was performed about twice a week even after 72 hr. The total luminescence amount in the mouse abdomen was calculated as photon/sec from the obtained images, and used as an index of gene expression activity in the liver.

[4] = tested on: TNF-α; test: Cytokine production by MEND administration, TNF-α (ELISA); conditions: pCpGfree-Luc(0), 40 μg DNA
Protocol: as §1

In the case of `CCCCCCCCCCCCCC(=O)OCCCN(C)CCSSCCN(C)CCCOC(=O)CCCCCCCCCCCCC` [Example B-2], the IL-12p70 blood concentration [1] was “maintained the normal value at any time point”, the “gene expression activity in the lung and spleen (organ selectivity)” value [2] was “background-level” and the “time of peak/maximum gene expression activity” value ([2]; liver) was 48 h. The “time at which luminescence completely disappeared” value ([3]; pCpGfree-Luc(0)) was 18 days, the “luminescence / gene expression time course” value ([3]; pCpGfree-Luc(0)) was “luminescence amount increased from 6 hr to 24 hr later, after which the luminescence amount was retained for the subsequent one week” and the “luminescence / gene expression time course” value ([3]; pcDNA3.1-Luc(+)) was “weak luminescence 6 hr later, after which the gene expression decreased”. For the same molecule, the TNF-α blood concentration [4] was “maintained the normal value at any time point”.
